Measurements: ChEMBL document CHEMBL4028834, “Stereoselective synthesis of enantiopure N-substituted pyrrolidin-2,5-dione derivatives by 1,3-dipolar cycloaddition and assessment of their in vitro antioxidant and antibacterial activities” (Bioorg Med Chem Lett, 2017)
Converted amounts (≈) assume the structure as drawn. The source made the active and inactive calls. The calls are words filed in the database; no cut-off is given here.

Experiments:
Micrococcus luteus [1] = test: Antibacterial activity against Micrococcus luteus assessed as diameter of inhibition zone at 125 mg/ml by agar well diffusion method; type: functional; settings: read-out: DIZ
[2] = Antioxidant activity assessed as ABTS radical scavenging activity at 3 mg/ml incubated for 2 hrs in dark by spectrophotometric analysis (reference value: 1 to 9%); type: functional
[3] = Antioxidant activity assessed as DPPH free radical scavenging activity incubated for 20 mins in dark; type: functional
[4] = Antioxidant activity assessed as ABTS radical scavenging activity at 2 mg/ml incubated for 2 hrs in dark by spectrophotometric analysis (reference value: 1 to 9%); type: functional
Bacillus cereus [5] = test: Antibacterial activity against Bacillus cereus JN934390 after 24 hrs by MTT dye based microdilution method; type: functional; settings: JN934390, 24 h
[6] = Antioxidant activity assessed as reduction in beta-carotene/linoleic acid bleaching activity at 2 mg/ml after 2 hrs by spectrophotometric method (reference value: 1 to 8%); type: functional; design: scale not given: the % may be the effect or the level left
[7] = Antioxidant activity assessed as reduction in beta-carotene/linoleic acid bleaching activity at 1 mg/ml after 2 hrs by spectrophotometric method (reference value: 1 to 8%); type: functional; design: scale not given: the % may be the effect or the level left
Micrococcus luteus [8] = test: Bactericidal activity against Micrococcus luteus after 48 hrs by MTT dye based microdilution method; type: functional
Bacillus subtilis [9] = test: Bactericidal activity against Bacillus subtilis JN934392 after 48 hrs by MTT dye based microdilution method; type: functional; settings: JN934392, 48 h
[10] = Antioxidant activity assessed as DPPH free radical scavenging activity at 1 mg/ml incubated for 20 mins in dark (reference value: 1 to 9%); type: functional
Listeria monocytogenes [11] = test: Antibacterial activity against Listeria monocytogenes assessed as diameter of inhibition zone at 125 mg/ml by agar well diffusion method; type: functional; settings: read-out: DIZ
[12] = Antioxidant activity assessed as ABTS radical scavenging activity at 1 mg/ml incubated for 2 hrs in dark by spectrophotometric analysis (reference value: 1 to 9%); type: functional
Micrococcus luteus [13] = test: Antibacterial activity against Micrococcus luteus after 24 hrs by MTT dye based microdilution method; type: functional
Bacillus cereus [14] = test: Antibacterial activity against Bacillus cereus JN934390 assessed as diameter of inhibition zone at 125 mg/ml by agar well diffusion method; type: functional; settings: read-out: DIZ
Bacillus subtilis [15] = test: Antibacterial activity against Bacillus subtilis JN934392 assessed as diameter of inhibition zone at 125 mg/ml by agar well diffusion method; type: functional; settings: read-out: DIZ
[16] = Antioxidant activity assessed as reduction in beta-carotene/linoleic acid bleaching activity after 2 hrs by spectrophotometric method; type: functional
Salmonella enteritidis [17] = test: Bactericidal activity against Salmonella enterica serotype Enteritidis ATCC 43972 after 48 hrs by MTT dye based microdilution method; type: functional, Salmonella enterica subsp. enterica serovar Enteritidis; settings: ATCC 43972, 48 h
[18] = Antioxidant activity assessed as reduction in beta-carotene/linoleic acid bleaching activity at 3 mg/ml after 2 hrs by spectrophotometric method (reference value: 1 to 8%); type: functional; design: scale not given: the % may be the effect or the level left
Bacillus cereus [19] = test: Bactericidal activity against Bacillus cereus JN934390 after 48 hrs by MTT dye based microdilution method; type: functional; settings: JN934390, 48 h
Bacillus subtilis [20] = test: Antibacterial activity against Bacillus subtilis JN934392 after 24 hrs by MTT dye based microdilution method; type: functional; settings: JN934392, 24 h
[21] = Antioxidant activity assessed as DPPH free radical scavenging activity at 3 mg/ml incubated for 20 mins in dark (reference value: 1 to 9%); type: functional
Staphylococcus aureus [22] = test: Antibacterial activity against Staphylococcus aureus ATCC 6538 assessed as diameter of inhibition zone at 125 mg/ml by agar well diffusion method; type: functional; settings: read-out: DIZ
Listeria monocytogenes [23] = test: Potency index, ratio of compound DIZ to chloramphenicol DIZ for Listeria monocytogenes; type: functional
Staphylococcus aureus [24] = test: Bactericidal activity against Staphylococcus aureus ATCC 6538 after 48 hrs by MTT dye based microdilution method; type: functional; settings: ATCC 6538, 48 h
Staphylococcus aureus [25] = test: Antibacterial activity against Staphylococcus aureus ATCC 6538 after 24 hrs by MTT dye based microdilution method; type: functional; settings: ATCC 6538, 24 h
[26] = Antioxidant activity assessed as DPPH free radical scavenging activity at 2 mg/ml incubated for 20 mins in dark (reference value: 1 to 9%); type: functional
Listeria monocytogenes [27] = test: Bactericidal activity against Listeria monocytogenes after 48 hrs by MTT dye based microdilution method; type: functional
Listeria monocytogenes [28] = test: Antibacterial activity against Listeria monocytogenes after 24 hrs by MTT dye based microdilution method; type: functional
[29] = Antioxidant activity assessed as reduction in beta-carotene/linoleic acid bleaching activity at 2.5 mg/ml after 2 hrs by spectrophotometric method (reference value: 1 to 8%); type: functional; design: scale not given: the % may be the effect or the level left
[30] = Antioxidant activity assessed as DPPH free radical scavenging activity at 2.5 mg/ml incubated for 20 mins in dark (reference value: 1 to 9%); type: functional
[31] = Antioxidant activity assessed as DPPH free radical scavenging activity at 0.5 mg/ml incubated for 20 mins in dark (reference value: 1 to 9 %); type: functional
Salmonella enteritidis [32] = test: Antibacterial activity against Salmonella enterica serotype Enteritidis ATCC 43972 assessed as diameter of inhibition zone at 125 mg/ml by agar well diffusion method; type: functional, Salmonella enterica subsp. enterica serovar Enteritidis; settings: read-out: DIZ
Klebsiella pneumoniae [33] = test: Bactericidal activity against Klebsiella pneumoniae after 48 hrs by MTT dye based microdilution method; type: functional
Escherichia coli [34] = test: Antibacterial activity against Escherichia coli ATCC 25922 assessed as diameter of inhibition zone at 125 mg/ml by agar well diffusion method; type: functional
Klebsiella pneumoniae [35] = test: Antibacterial activity against Klebsiella pneumoniae after 24 hrs by MTT dye based microdilution method; type: functional
Klebsiella pneumoniae [36] = test: Antibacterial activity against Klebsiella pneumoniae assessed as diameter of inhibition zone at 125 mg/ml by agar well diffusion method; type: functional; settings: read-out: DIZ
[37] = Antioxidant activity assessed as reduction in beta-carotene/linoleic acid bleaching activity at 0.5 mg/ml after 2 hrs by spectrophotometric method (reference value: 1 to 8 %); type: functional; design: scale not given: the % may be the effect or the level left
[38] = Antioxidant activity assessed as ABTS radical scavenging activity at 0.5 mg/ml incubated for 2 hrs in dark by spectrophotometric analysis (reference value: 1 to 9 %); type: functional
Salmonella enteritidis [39] = test: Antibacterial activity against Salmonella enterica serotype Enteritidis ATCC 43972 after 24 hrs by MTT dye based microdilution method; type: functional, Salmonella enterica subsp. enterica serovar Enteritidis; settings: ATCC 43972, 24 h
[40] = Antioxidant activity assessed as ABTS radical scavenging activity at 2.5 mg/ml incubated for 2 hrs in dark by spectrophotometric analysis (reference value: 1 to 9%); type: functional
[41] = Antioxidant activity assessed as ABTS radical scavenging activity incubated for 2 hrs in dark by spectrophotometric analysis; type: functional
Bacillus cereus [42] = test: Antibacterial activity against Bacillus cereus JN934390 assessed as diameter of inhibition zone at 15 microg/well by agar well diffusion method; type: functional; settings: read-out: DIZ
Salmonella enteritidis [43] = test: Antibacterial activity against Salmonella enterica serotype Enteritidis ATCC 43972 assessed as diameter of inhibition zone at 15 microg/well by agar well diffusion method; type: functional, Salmonella enterica subsp. enterica serovar Enteritidis; settings: read-out: DIZ
Klebsiella pneumoniae [44] = test: Antibacterial activity against Klebsiella pneumoniae assessed as diameter of inhibition zone at 15 microg/well by agar well diffusion method; type: functional; settings: read-out: DIZ
Listeria monocytogenes [45] = test: Antibacterial activity against Listeria monocytogenes assessed as diameter of inhibition zone at 15 microg/well by agar well diffusion method; type: functional; settings: read-out: DIZ
Micrococcus luteus [46] = test: Antibacterial activity against Micrococcus luteus assessed as diameter of inhibition zone at 15 microg/well by agar well diffusion method; type: functional; settings: read-out: DIZ
Escherichia coli [47] = test: Antibacterial activity against Escherichia coli ATCC 25922 assessed as diameter of inhibition zone at 15 microg/well by agar well diffusion method; type: functional; settings: read-out: DIZ
Staphylococcus aureus [48] = test: Antibacterial activity against Staphylococcus aureus ATCC 6538 assessed as diameter of inhibition zone at 15 microg/well by agar well diffusion method; type: functional; settings: read-out: DIZ
Bacillus subtilis [49] = test: Antibacterial activity against Bacillus subtilis JN934392 assessed as diameter of inhibition zone at 15 microg/well by agar well diffusion method; type: functional; settings: read-out: DIZ

Structure (SMILES): Cc1ccc(N2C(=O)[C@H]3[C@H](ON4[C@@H]3C(=O)N(C)[C@@]43C[C@H](C)CC[C@H]3C(C)C)C2=O)c(C)c1
- zone of inhibition at 125000 µg/mL (Micrococcus luteus [1]): 9.66 mm
- Activity [2]: 85.8%
- Activity [3]: Dose-dependent effect
- IC50 [3]: 500 µg/mL (≈ 1.14 mM)
- Activity [4]: 79.4%
- MIC (Bacillus cereus [5]): 3120 µg/mL (≈ 7.1 mM)
- Activity [6]: 57%
- Activity [7]: 53.1%
- MBC (Micrococcus luteus [8]): 50000 µg/mL (≈ 114 mM)
- MBC (Bacillus subtilis [9]): 12500 µg/mL (≈ 28.4 mM)
- Activity [10]: 57%
- zone of inhibition at 125000 µg/mL (Listeria monocytogenes [11]): 24.7 mm
- Activity [12]: 69%
- MIC (Micrococcus luteus [13]): 6250 µg/mL (≈ 14.2 mM)
- zone of inhibition at 125000 µg/mL (Bacillus cereus [14]): 21.7 mm
- zone of inhibition at 125000 µg/mL (Bacillus subtilis [15]): 20.7 mm
- IC50 [16]: 430 µg/mL (≈ 0.978 mM)
- MBC (Salmonella enteritidis [17]): 12500 µg/mL (≈ 28.4 mM)
- Activity [18]: 71.3%
- MBC (Bacillus cereus [19]): 25000 µg/mL (≈ 56.9 mM)
- MIC (Bacillus subtilis [20]): 3120 µg/mL (≈ 7.1 mM)
- Activity [21]: 73.2 to 89.3%
- zone of inhibition at 125000 µg/mL (Staphylococcus aureus [22]): 22 mm
- Ratio (Listeria monocytogenes [23]): 2
- MBC (Staphylococcus aureus [24]): 12500 µg/mL (≈ 28.4 mM)
- MIC (Staphylococcus aureus [25]): 6250 µg/mL (≈ 14.2 mM)
- Activity [26]: 72%
- MBC (Listeria monocytogenes [27]): 3120 µg/mL (≈ 7.1 mM)
- MIC (Listeria monocytogenes [28]): 1560 µg/mL (≈ 3.55 mM)
- Activity [29]: 65.6%
- Activity [30]: 77.1%
- Activity [31]: 49.9%
- zone of inhibition at 125000 µg/mL (Salmonella enteritidis [32]): 20.3 mm
- MBC (Klebsiella pneumoniae [33]): 6250 µg/mL (≈ 14.2 mM)
- diameter of the inhibition zone (DIZ) (Escherichia coli [34]): inactive
- MIC (Klebsiella pneumoniae [35]): 3120 µg/mL (≈ 7.1 mM)
- zone of inhibition at 125000 µg/mL (Klebsiella pneumoniae [36]): 23 mm
- Activity [37]: 51%
- Activity [38]: 52.9%
- MIC (Salmonella enteritidis [39]): 3120 µg/mL (≈ 7.1 mM)
- Activity [40]: 82.6%
- IC50 [41]: 420 µg/mL (≈ 0.956 mM)

Structure (SMILES): O=C(N[C@H](CO)[C@H](O)c1ccc([N+](=O)[O-])cc1)C(Cl)Cl [CHLORAMPHENICOL]
- zone of inhibition at 15 µg/disc (Bacillus cereus [42]): 26 mm
- zone of inhibition at 15 µg/disc (Salmonella enteritidis [43]): 16 mm
- zone of inhibition at 15 µg/disc (Klebsiella pneumoniae [44]): 22 mm
- zone of inhibition at 15 µg/disc (Listeria monocytogenes [45]): 12 mm
- zone of inhibition at 15 µg/disc (Micrococcus luteus [46]): 20 mm
- zone of inhibition at 15 µg/disc (Escherichia coli [47]): 23.5 mm
- zone of inhibition at 15 µg/disc (Staphylococcus aureus [48]): 17 mm
- zone of inhibition at 15 µg/disc (Bacillus subtilis [49]): 24 mm
